Ends that are not written are not given here.

A word on the IC50: it is the concentration that inhibits the measured activity by half.

One experiment has as its target T1, angiotensin-I converting enzyme (ACE) (Oryctolagus cuniculus, UniProt P12822).
T1 construct: purchased Sigma-Aldrich
T1 sequence (P12822 34-1310): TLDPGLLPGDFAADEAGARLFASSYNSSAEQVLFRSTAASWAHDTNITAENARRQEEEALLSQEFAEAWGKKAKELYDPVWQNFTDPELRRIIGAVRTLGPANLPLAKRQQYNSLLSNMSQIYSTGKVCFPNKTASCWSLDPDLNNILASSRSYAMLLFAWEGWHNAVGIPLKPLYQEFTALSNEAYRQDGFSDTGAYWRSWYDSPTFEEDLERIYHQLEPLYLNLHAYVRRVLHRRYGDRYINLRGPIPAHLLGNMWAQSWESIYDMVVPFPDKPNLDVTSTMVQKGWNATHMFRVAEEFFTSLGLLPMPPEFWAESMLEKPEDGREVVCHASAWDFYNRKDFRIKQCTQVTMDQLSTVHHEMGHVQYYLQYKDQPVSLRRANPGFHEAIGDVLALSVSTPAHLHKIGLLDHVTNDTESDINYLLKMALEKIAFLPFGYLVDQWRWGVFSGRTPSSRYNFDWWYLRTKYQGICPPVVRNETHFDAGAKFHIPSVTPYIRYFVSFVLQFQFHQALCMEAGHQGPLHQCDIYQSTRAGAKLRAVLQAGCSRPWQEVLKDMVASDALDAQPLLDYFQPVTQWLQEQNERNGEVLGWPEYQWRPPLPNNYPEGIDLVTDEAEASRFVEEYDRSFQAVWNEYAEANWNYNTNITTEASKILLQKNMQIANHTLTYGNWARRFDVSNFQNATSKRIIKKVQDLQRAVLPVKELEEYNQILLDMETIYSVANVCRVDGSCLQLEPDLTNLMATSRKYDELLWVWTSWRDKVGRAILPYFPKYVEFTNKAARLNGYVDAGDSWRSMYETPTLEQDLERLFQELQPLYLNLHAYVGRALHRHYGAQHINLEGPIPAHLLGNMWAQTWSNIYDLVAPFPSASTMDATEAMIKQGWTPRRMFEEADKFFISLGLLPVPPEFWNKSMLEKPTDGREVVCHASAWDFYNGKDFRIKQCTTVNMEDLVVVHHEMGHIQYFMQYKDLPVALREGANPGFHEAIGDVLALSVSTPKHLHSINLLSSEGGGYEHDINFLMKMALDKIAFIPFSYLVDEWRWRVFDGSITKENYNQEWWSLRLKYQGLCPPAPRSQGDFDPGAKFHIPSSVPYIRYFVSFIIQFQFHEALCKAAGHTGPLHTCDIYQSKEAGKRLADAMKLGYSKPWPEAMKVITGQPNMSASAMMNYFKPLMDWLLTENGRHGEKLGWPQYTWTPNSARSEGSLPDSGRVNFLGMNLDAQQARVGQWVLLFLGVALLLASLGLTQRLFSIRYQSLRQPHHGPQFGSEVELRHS
The experiment is described as follows: ACE inhibitory activity (iACE), fluorometric assay. In kind it is biochemical. The conditions noted are these: Digested (simulated gastrointestinal digestion, 50 µg mL^−1 in intestinal compartment). The protocol: The ACE inhibitory activity was carried out using the fluorometric assay described by Coscueta, Brassesco, and Pintado (2021). The iACE of each sample (raw peptide and digested) was evaluated in duplicate and expressed as the concentration capable of inhibiting 50% of the enzymatic activity (IC50). To calculate the IC50 values, non-linear modeling was used, and the results were expressed as μg mL^−1 to inhibit 50% of the enzymatic activity.
Simulated gastrointestinal digestion was performed according to the method described by Madureira et al. (2011). Briefly, mouth digestion was mimicked by introducing the peptide sequence (2.5 mg/mL) into 15 mL of a 1 mM CaCl2 solution of 100 U mL^−1 α-amylase, under constant stirring (200 rpm) for 2 min at 37 °C, simulating masticatory movements. A 1 M NaHCO3 solution was used to adjust the pH of artificial saliva to 6.9. Subsequently, a pepsin solution, 25 mg/mL, was added with a ratio of 0.05 mL/mL of a sample at pH 2.0 (simulated gastric solution, stomach) following incubation for 2 h, 37 °C at 130 rpm orbital agitation for the gastric phase. Finally, intestinal digestion and absorption were simulated by adjusting pH values to […] using a 1 M NaHCO3 solution and adding a solution of bile salts and pancreatin to the digest.
Turning to QSLVYPFTGPIPNSL [QSLVYPFTGPIPNSL], the IC50 is more than 30.6 µM. SWMHQPP [SWMHQPP] showed an IC50 of more than 56.7 µM.

In turn, YPYQGPIVL [YPYQGPIVL] yielded an IC50 of more than 47.7 µM.

Staying with this experiment, now noted: Raw peptide; mean ± SD.
Substance HQPPQPL [HQPPQPL] came in with an IC50 of more than 3680 µM.

Regarding MHQPPQPL [MHQPPQPL], the IC50 is more than 3170 µM. Still for that read-out and setting: with QSLVYPFTGPIPNSL [QSLVYPFTGPIPNSL] the figure was more than 1840 µM.

The substance SWMHQPP [SWMHQPP] had an IC50 of 253 µM. For YPYQGPIVL [YPYQGPIVL], the IC50 is 1060 µM.

Another experiment concerns ACE.
Experiment: not given
To be noted: antihypertensive oligopeptides encoded in human β-casein; cited from earlier work.
Consider “LPQNILP [antihypertensive oligopeptide encoded in the human β-casein]”, for which the “IC50 (ACE)” value is 36.5 µg/mL. For “NPPHQIYP [antihypertensive oligopeptide encoded in the human β-casein]”, the “IC50 (ACE)” value was 35.7 µg/mL. For PAVVLP, the “IC50 (ACE)” value is 26.8 µg/mL.

As for PHQIYP, the “IC50 (ACE)” value was 22.6 µg/mL.

On to “TVYTKGRVMP [antihypertensive oligopeptide encoded in the human β-casein]”, for which the “IC50 (ACE)” value was 43.7 µg/mL. As to VLPIP, the “IC50 (ACE)” value was 16.7 µg/mL. In the case of VLPYP, the “IC50 (ACE)” value was 21.1 µg/mL. Consider VMP, for which the “IC50 (ACE)” value is 10.0 µg/mL.

Still in this experiment, the particulars now being: antihypertensive oligopeptides encoded in various β-caseins; cited from earlier work.
“FAQTQSLVYP [antihypertensive oligopeptide encoded in various β-caseins]”: the “IC50 (ACE)” value was 28.8 µg/mL.

For “HPFAQTQQSLVYP [antihypertensive oligopeptide encoded in various β-caseins]”, the “IC50 (ACE)” value was 36.1 µg/mL. Consider SLVYP, for which the “IC50 (ACE)” value is 23.7 µg/mL.

The experiment is the same for the next values; noted with them: whey-derived peptides; ref Tavares et al. (2011) [14]; cited from earlier work.
Consider DAQSAPLRVY, for which the “IC50 (ACE)” value was 12.2 µg/mL.

Consider DKVGINYW, for which the “IC50 (ACE)” value was 25.4 µg/mL. Take KGYGGVSLPEW: the “IC50 (ACE)” value is 0.7 µg/mL.

System in another experiment: not given
Experiment: not given
Further details: method as in Contreras et al. (2013) [21]. To be noted: after the digestion process; ref Contreras et al. (2013) [21]; cited from earlier work.
Take “AYFYPEL [casein-derived peptide studied by Contreras et al. (2013)]”: the antioxidant capacity was 4.160 ± 0.623 µmol TE µmol^−1 peptide.

As for RYLGY, the “change of antioxidant activity” value was “reduced”.

In the case of “YQKFPQY [casein-derived peptide studied by Contreras et al. (2013)]”, the “change of antioxidant activity” value is on record as “reduced”.

The experiment is the same for the next values; noted with them: before digestion; ref Contreras et al. (2013) [21]; cited from earlier work.
With “AYFYPEL [casein-derived peptide studied by Contreras et al. (2013)]”, the antioxidant capacity is reported as 3.216 ± 0.114 µmol TE µmol^−1 peptide.

These data come from publication PMC8910560, “Screening of Novel Bioactive Peptides from Goat Casein: In Silico to In Vitro Validation” (International Journal of Molecular Sciences, 2022).
